Consider six molecules from patent US4731109A, “Herbicidal 2-haloacetanilides” (Monsanto Company, priority 1982, dated 1988).

What all share (assay): Greenhouse pre-emergence GR15/GR85 selectivity test
Type in all cases: in vivo

Assay [1] concerns corn. From the text: (§1) A good grade of top soil is placed in aluminum pans and compacted to a depth of three-eighths to one-half inch from the top of the pan. On the top of the soil is placed a number of seeds or vegetative propagules of various plant species. The soil required to level fill the pans after seeding or adding vegetative propagules is weighed into a pan. The soil and a known amount of the active ingredient applied in a solvent or as a wettable powder suspension are thoroughly mixed, and used to cover the prepared pans. After treatment, the pans are given an initial overhead irrigation of eater, equivalent to one-fourth inch (0.64 cm) rainfall, then watered by subirrigation as need to give adequate moisture for germination and growth. As an alternative procedure, the overhead irrigation may be omitted. Observations are made about 2-3 weeks after seeding and treatment.
(§2) In the discussion and tables of data below, reference is made to herbicide application rates symbolized as "GR15 " and "GR85 "; these rates are given in kilograms per hectare (kg/ha) which are convertible into pounds per acre (lbs/A) by dividing the kg/ha rate by 1.12.
(§3) A further guide to the effectiveness of a chemical as a selective herbicide is the "selectivity factor" ("SF") for a herbicide in given crops and weeds. The selectivity factor is a measure of the relative degree of crop safety and weed injury and is expressed in terms of the GR15 /GR85 ratio, i.e., the GR15 rate for the crop divided by the GR85 rate for the weed, both rates in kg/ha (lb/A). In the tables below, selectivity factors are shown in parenthesis following the GR85 rate for each weed; the symbol "NS" indicates "non-selective". Marginal or undetermined selectivity is indicated by a dash (--).
(§4) In Table IV pre-emergence herbicidal activity data are presented comparing the relative efficacy of the invention compounds and said prior art compounds as selective herbicides against the resistant and troublesome perennial weeds quackgrass and yellow nutsedge in soybeans and corn, respectively. These weeds are commonly associated with such major crops as corn and soybeans. The test data in Table IV were obtained under identical procedural conditions and represent two replicate runs (except for the compound of Example 9 which was present in one comparative test). The test procedure was the same as described for Tables II and III but modified by the application of an initial overhead irrigation equivalent to 1/4" (0.64 cm) rainfall; subsequent watering was accomplished by subirrigation. "NS" means non-selective within the test limits.
(§5) Additionally, pre-emergence herbicidal data from other tests have established that compounds according to this invention also selectively suppress quackgrass, yellow nutsedge and/or other weeds in one or more of the crops cotton, peanuts, bush beans and/or rape. For example, in Table VI are presented data showing the herbicidal selectivity of the compounds of Examples 1 and 2 against quackgrass in rape and snap beans. Unless otherwise noted; greenhouse tests in Table VI and in other tables below involved herbicide treatments by soil incorporation and an initial overhead irrigation followed by subirrigation as described above.

Assay [2] concerns Yellow Nutsedge.
Text: as §1, with “After treatment, the pans are given an initial overhead irrigation of eater, equivalent to one-fourth inch (0.64 cm) rainfall, then watered by subirrigation as need to give adequate moisture for germination and growth.” left out
as §3
(§6) These weeds are commonly associated with such major crops as corn and soybeans. […] The test procedure was the same as described for Tables II and III but modified by the application of an initial overhead irrigation equivalent to 1/4" (0.64 cm) rainfall; subsequent watering was accomplished by subirrigation. "NS" means non-selective within the test limits.
(§7) Unless otherwise noted; greenhouse tests in Table VI and in other tables below involved herbicide treatments by soil incorporation and an initial overhead irrigation followed by subirrigation as described above.

Assay [3] has as its system Quackgrass.
Text: as §1, with “After treatment, the pans are given an initial overhead irrigation of eater, equivalent to one-fourth inch (0.64 cm) rainfall, then watered by subirrigation as need to give adequate moisture for germination and growth.” left out
as §3, §6, §7

The test system of assay [4] is soybeans.
Text: as §1, §2, §3, §4, §5

Assay [5] relates to cotton. Conditions: cotton/yellow nutsedge, average of two replicates.
Text: as §1, §2, §3, §5
In one multi-crop test in the greenhouse, the compounds of Examples 1, 9, and 10 were tested against yellow nutsedge in cotton, soybeans, corn and rice; each compound was non-selective with respect to yellow nutsedge in rice. However, markedly high selectivities for yellow nutsedge in cotton, soybeans and corn were shown for each of the compounds in the test; the respective GR15 and GR85 rates for these compounds are shown in Table XII selectivity factors are shown in parenthesis after each crop.

Where [6] appears, read: yellow nutsedge in corn, Table IV, Replicate #1.
The mark [7] stands for this setting: yellow nutsedge in corn, Table IV, Replicate #2.
The mark [8] stands for this setting: yellow nutsedge in soybeans, Table IV, Replicate #1.
Where [9] appears, read: yellow nutsedge in soybeans, Table IV, Replicate #2.
[10] abbreviates: quackgrass in corn, Table IV, Replicate #2.
Setting [11] is: yellow nutsedge in corn, Table V.
[12] abbreviates: yellow nutsedge in soybeans, Table V.
Where [13] appears, read: quackgrass in soybeans, Table V.
The mark [14] stands for this setting: in cotton, average of two replicates.

Where only a bound is given, the exact number is not on record here.

As to `CCOCCN(C(=O)CCl)c1ccccc1C(F)(F)F` [B, N-(ethoxyethyl)-2'-trifluoromethyl-2-chloroacetanilide, reference compound], the GR15 in assay [1] (Table IV, Replicate #1) is reported as 1.2 Kg/Ha; in assay [1] (Table IV, Replicate #2), 0.37 Kg/Ha. Besides, the GR85 in assay [2] (Table IV, Replicate #1) turned out to be 0.47 Kg/Ha; in assay [2] (Table IV, Replicate #2), 0.43 Kg/Ha; in assay [3] (Table IV, Replicate #1), 0.56 Kg/Ha; in assay [3] (Table IV, Replicate #2), 0.64 Kg/Ha. Besides, the “selectivity factor (GR15/GR85)” value in assay [2] (setting [6]) is given as 2.5; in assay [2] (setting [7]) it was “NS (non-selective)”; in assay [2] (setting [8]), 4; in assay [2] (setting [9]), 4.5; in assay [3] (quackgrass in corn, Table IV, Replicate #1), 2; in assay [3] (setting [10]) it was “NS (non-selective)”. The “selectivity factor (GR15/GR85)” value in assay [3] (quackgrass in soybeans, Table IV, Replicate #1) is 3.5; in assay [3] (quackgrass in soybeans, Table IV, Replicate #2) it was 3.
In assay [1] (Table V), `COCCN(C(=O)CCl)c1c(C)cccc1C(F)(F)F` [C, N-(methoxyethyl)-2'-trifluoromethyl-6'-methyl-2-chloroacetanilide, reference compound] displayed a GR15 of 1.3 Kg/Ha. Also, the GR85 in assay [2] (Table V) and in assay [3] (Table V) was 0.28 Kg/Ha throughout. The “selectivity factor (GR15/GR85)” value is recorded as 5 in assay [2] (setting [11]); > 10 in assay [2] (setting [12]); 5 in assay [3] (quackgrass in corn, Table V); > 10 in assay [3] (setting [13]).
On to `COCC(C)N(C(=O)CCl)c1c(C)cccc1C(F)(F)F` (stereo not shown) [D, N-(methoxyisopropyl)-2'-trifluoromethyl-6'-methyl-2-chloroacetanilide, reference compound], for which the GR15 is given as > 2.8 Kg/Ha in assay [4] (Table V) and 2.0 Kg/Ha in assay [1] (Table V). For the same molecule, the values for the GR85 in assay [2] (Table V) and in assay [3] (Table V) were 0.45 Kg/Ha and 1.7 Kg/Ha, respectively. The “selectivity factor (GR15/GR85)” value is reported as 4 in assay [2] (setting [11]); > 6 in assay [2] (setting [12]); 1 in assay [3] (quackgrass in corn, Table V); > 1.5 in assay [3] (setting [13]).
In assay [1] (Table V), `CCOCCN(C(=O)CCl)c1c(C)cccc1C(F)(F)F` [E, N-(ethoxyethyl)-2'-trifluoromethyl-6'-methyl-2-chloroacetanilide, reference compound] showed a GR15 of 0.67 Kg/Ha. The GR85 turned out to be 0.22 Kg/Ha in assay [2] (Table V) and 0.28 Kg/Ha in assay [3] (Table V). The “selectivity factor (GR15/GR85)” value was 3 in assay [2] (setting [11]); 4 in assay [2] (setting [12]); 2.5 in assay [3] (quackgrass in corn, Table V); 3 in assay [3] (setting [13]).
For the molecule `COCCN(C(=O)CCl)c1ccccc1C(F)(F)F` [A, N-(methoxyethyl)-2'-trifluoromethyl-2-chloroacetanilide, reference compound], the GR15 was > 2.2 Kg/Ha in assay [1] (Table IV, Replicate #1) and 2.2 Kg/Ha in assay [1] (Table IV, Replicate #2). The GR85 in assay [2] (Table IV, Replicate #1) is given as 1.2 Kg/Ha; in assay [2] (Table IV, Replicate #2), 1.0 Kg/Ha; in assay [3] (Table IV, Replicate #1, extrapolated value), 2.5 Kg/Ha; in assay [3] (Table IV, Replicate #2) it was > 2.2 Kg/Ha. The “selectivity factor (GR15/GR85)” value in assay [2] (setting [6]) was > 2; in assay [2] (setting [7]), 2; in assay [2] (setting [8]) it was > 2; in assay [2] (setting [9]), > 2; in assay [3] (setting [10]), “NS (non-selective)”.
`C#CCOCN(C(=O)CCl)c1c(C)cccc1C(F)(F)F` [Example 8, N--(propargyloxymethyl)-2'-trifluoromethyl-6'-methyl-2-chloroacetanilide]: the GR15 in assay [4] (soybeans/quackgrass) is > 2.2 kg/ha; in assay [4] (soybeans/yellow nutsedge) it was 2.2 kg/ha; in assay [1] (corn/quackgrass) it was > 2.2 kg/ha; in assay [1] (corn/yellow nutsedge), > 2.2 kg/ha; in assay [5], 2.0 kg/ha. Further, the GR85 came out at 0.95 kg/ha in assay [2] (in corn); 0.95 kg/ha in assay [2] (setting [14]); 0.5 kg/ha in assay [2] (in soybeans); 0.5 kg/ha in assay [3] (both corn and soybeans). Moreover, the “S.F. (GR15/GR85)” value is 2.5 in assay [2] (in corn); 2 in assay [2] (setting [14]); 4.5 in assay [2] (in soybeans); 4.5 in assay [3] (in corn); 4.5 in assay [3] (in soybeans).
